Assay results as given in patent US9422246B2, “Benzylidene azolidine derivative or salt thereof” (ROHTO Pharmaceutical Co., Ltd., priority 2012, dated 2016).

How the values were obtained:
[1] = UV absorbing properties (UV spectrum in ethanol); format: physicochemical; conditions: 5 ppm in ethanol, quartz cell 1 cm optical path length
Description: The resulting compound 1 was dissolved at a concentration of 5 ppm in ethanol as a solvent to form a sample solution. After the prepared sample solution was injected into a quartz cell (1 cm in optical path length), the UV spectrum of the sample was measured with a spectrophotometer (UV-2450 manufactured by SHIMADZU CORPORATION), in which the maximal absorption wavelength (λmax) and the absorbance at the maximal absorption wavelength were determined. When the maximal absorption wavelength falls within the ultraviolet wavelength range, the higher absorbance at the maximal absorption wavelength indicates the better UV absorbing properties.

[2] = Evaluation of hydrophilicity (solubility in test solvent); format: physicochemical; conditions: 25° C.; test solvent 10% by weight dipropylene glycol, 10% ethanol, 80% purified water
Description: Test solvent: A mixed solvent containing 10% by weight of dipropylene glycol, 10% by weight of ethanol, and 80% by weight of purified water (based on 100% by weight of the total amount of dipropylene glycol, ethanol, and purified water).
Based on the difference in solubility, the hydrophilicity was evaluated as follows.
Particularly high hydrophilicity: A solubility of 1.0 or more (g/100 g test solvent)
High hydrophilicity: A solubility of 0.2 to less than 1.0 (g/100 g test solvent)
Low hydrophilicity: A solubility of 0.1 to less than 0.2 (g/100 g test solvent)
No hydrophilicity: A solubility of less than 0.1 (g/100 g test solvent) or the occurrence of suspended solids

Absorbance at maximal absorption wavelength [1] | Maximal absorption wavelength (λmax) [1] [nm] | Solubility [2] | SMILES
0.20 | 335 | 0.2 g/100 g test solvent | O=C(COc1ccc(C=C2NC(=O)N(CC(=O)OCCOCCO)C2=O)cc1)OCCOCCO [Compound 5, 5-[4-[2-[2-(2-hydroxyethoxyl)ethoxy]-2-oxoethoxy]benzylidene]-3-[2-[2-(2-hydroxyethoxyl)ethoxy]-2-oxoethyl]hydantoin]
0.14 | 326 | 25< g/100 g test solvent | COc1ccc(C=C2C(=O)N(CC(=O)OCCOCCO)C(=O)N2CC(=O)OCCOCCO)cc1 [Compound 7, 5-(4-methoxybenzylidene)-1,3-bis[2-[2-(2-hydroxyethoxy)ethoxy]-2-oxoethyl]hydantoin]
0.18 | 328 | 25< g/100 g test solvent | COc1ccc(C=C2C(=O)N(CC(=O)N(CCO)CCO)C(=O)N2CC(=O)N(CCO)CCO)cc1 [Compound 6, 5-(4-methoxybenzylidene]-1,3-bis[2-[bis(2-hydroxyethyl)amino]-2-oxoethyl]hydantoin]
0.34 | 338 | 1.5 g/100 g test solvent | O=C(CCN1C(=O)NC(=Cc2ccc(OCCOCCO)cc2)C1=O)N(CCO)CCO [Compound 4, 5-[4-[2-(2-hydroxyethoxyl)ethoxy]benzylidene]-3-[3-[bis(2-hydroxyethyl)amino]-3-oxopropyl]hydantoin]
0.43 | 335 | 2.0 g/100 g test solvent | O=C1NC(=Cc2ccc(OCCOCCO)cc2)C(=O)N1CCOCCO [Compound 1, 5-[4-[2-(2-hydroxyethoxyl)ethoxy]benzylidene]-3-[2-(2-hydroxyethoxyl)ethyl]hydantoin]
0.12 | 325 | 25< g/100 g test solvent | O=C1C(=Cc2ccc(OCCOCCOCCO)cc2)N(CCOCCOCCO)C(=O)N1CCOCCOCCO [Compound 2, 5-[4-[2-[2-(2-hydroxyethoxyl)ethoxy]ethoxy]benzylidene]-1,3-bis[2-[2-(2-hydroxyethoxyl)ethoxy]ethyl]hydantoin]
0.30 | 336 | 1.2 g/100 g test solvent | O=C(COc1ccc(C=C2NC(=O)N(CC(=O)N(CCO)CCO)C2=O)cc1)N(CCO)CCO [Compound 3, 5-[4-[2-[bis(2-hydroxyethyl)amino]-2-oxoethoxy]benzylidene]-3-[2-[bis(2-hydroxyethyl)amino]-2-oxoethyl]hydantoin]
– | – | <0.05 g/100 g test solvent | CCCCC(CC)COC(=O)CCN1C(=O)NC(=Cc2ccc(OC)c(OC)c2)C1=O (stereo not shown) [1′, 2-ethylhexyl dimethoxybenzylidene dioxoimidazolidine propionate, reference compound]
